Measurements published in US11111245B2, “Derivatives of N-cycloalkyl/heterocycloalkyl-4-(imidazo[1,2-a]pyridine)pyrimidin-2-amine as therapeutic agents” (Aucentra Therapeutics Pty Ltd, priority 2017, dated 2021).

What was measured:
CDK9/T1 = CDK9/T1 (Homo sapiens, UniProt P50750); experiment: ADP Glo Kinase assay CDK9/T1; format: biochemical; settings: CDK9T1; read-out: CDK inhibition, Ki (μM) CDK9T1
Outline: (§1)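 CDK4/D1 and CDK6/D3 were run in […] Tris pH 7.5, 20 mM MgCl2, 0.4 mM DTT, 0.1 mg/ml BSA with RB-CTF substrate; CDK9/T1 used RBER-IRStide. ATP-started reactions ran 40 min at 37° C, with ADP Glo luminescence read-out. IC50 came from 4-parameter fits; Ki from Km (ATP) and IC50.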

CDK4/D1 = CDK4/D1 (Homo sapiens, UniProt P11802); experiment: ADP Glo Kinase assay CDK4/D1; format: biochemical; settings: CDK4D1; for remaining activity at 10 µM: compound at 10 μM, read-out: residual activity (%) at 10 μM CDK4D1
Outline: as §1

CDK6/D3 = CDK6/D3 (Homo sapiens, UniProt Q00534); experiment: ADP Glo Kinase assay CDK6/D3; format: biochemical; settings: CDK6D3; for remaining activity at 10 µM: compound at 10 μM, read-out: residual activity (%) at 10 μM CDK6D3
Outline: as §1

CDKs and other kinases [1] = biological target: T1, CDKs and other kinases (Homo sapiens, UniProt P24941); experiment: Radiometric kinase assay (Eurofins Pharma Discovery or Reaction Biology Corporation Kinase Profiler); format: biochemical; settings: CDK2A; for Ki: read-out: CDK inhibition, Ki (μM) CDK2A; for remaining activity at 10 µM: compound at 10 μM, read-out: residual activity (%) at 10 μM CDK2A
T1 construct: other: CDK2A; residual activity (%) at 10 μM CDK2A; compound at 10 μM
Outline: (§2)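 Other CDKs and further kinases were profiled externally by radiometric assay. In-house ADP Glo assays covered CDK4/D1 and CDK6/D3 (RB-CTF substrate, pH 7.5 Tris buffer with MgCl2, DTT, BSA) and CDK9/T1 (RBER-IRStide substrate), 40 min at 37° C.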

CDKs and other kinases [2] = biological target: T2, CDKs and other kinases (Homo sapiens, UniProt P50613); experiment: as above; format: biochemical; settings: CDK7H; for Ki: read-out: CDK inhibition, Ki (μM) CDK7H; for remaining activity at 10 µM: compound at 10 μM, read-out: residual activity (%) at 10 μM CDK7H
T2 construct: other: CDK7H; residual activity (%) at 10 μM CDK7H; compound at 10 μM
Outline: as §2

CDKs and other kinases [3] = biological target: T3, CDKs and other kinases (Homo sapiens, UniProt P06493); experiment: as above; format: biochemical; settings: CDK1B; for Ki: read-out: CDK inhibition, Ki (μM) CDK1B; for remaining activity at 10 µM: compound at 10 μM, read-out: residual activity (%) at 10 μM CDK1B
T3 construct: other: CDK1B; residual activity (%) at 10 μM CDK1B; compound at 10 μM
Outline: as §2

leukemia cell lines = experiment: Resazurin cell viability assay on leukemia cell lines (72 h growth inhibition, GI50); format: cell-based; settings: Homo sapiens, MV4-11 cells
Outline: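 Solid tumour cells: MTT. Leukaemia cells: resazurin. GI50 fitted by non-linear regression.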

T2 sequence (P50613 whole entry): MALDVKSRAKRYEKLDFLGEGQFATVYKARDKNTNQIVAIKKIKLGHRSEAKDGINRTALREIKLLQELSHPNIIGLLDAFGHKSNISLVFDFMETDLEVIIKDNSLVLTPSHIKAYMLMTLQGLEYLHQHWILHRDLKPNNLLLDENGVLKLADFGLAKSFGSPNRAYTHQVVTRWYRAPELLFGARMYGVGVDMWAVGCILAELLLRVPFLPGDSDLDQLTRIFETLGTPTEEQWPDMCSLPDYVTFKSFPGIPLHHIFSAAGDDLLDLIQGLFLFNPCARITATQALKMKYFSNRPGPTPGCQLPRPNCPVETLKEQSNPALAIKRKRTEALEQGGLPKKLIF
T3 sequence (P06493 whole entry): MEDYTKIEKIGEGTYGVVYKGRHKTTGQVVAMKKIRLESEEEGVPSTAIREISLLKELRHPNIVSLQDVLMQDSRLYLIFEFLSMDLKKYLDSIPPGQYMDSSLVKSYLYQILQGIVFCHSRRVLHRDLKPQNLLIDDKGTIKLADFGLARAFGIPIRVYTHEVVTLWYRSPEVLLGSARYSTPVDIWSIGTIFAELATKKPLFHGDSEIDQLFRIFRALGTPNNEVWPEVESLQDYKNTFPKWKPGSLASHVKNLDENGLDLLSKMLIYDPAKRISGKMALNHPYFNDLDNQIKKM
Sequence of CDK9/T1 (P50750 whole entry): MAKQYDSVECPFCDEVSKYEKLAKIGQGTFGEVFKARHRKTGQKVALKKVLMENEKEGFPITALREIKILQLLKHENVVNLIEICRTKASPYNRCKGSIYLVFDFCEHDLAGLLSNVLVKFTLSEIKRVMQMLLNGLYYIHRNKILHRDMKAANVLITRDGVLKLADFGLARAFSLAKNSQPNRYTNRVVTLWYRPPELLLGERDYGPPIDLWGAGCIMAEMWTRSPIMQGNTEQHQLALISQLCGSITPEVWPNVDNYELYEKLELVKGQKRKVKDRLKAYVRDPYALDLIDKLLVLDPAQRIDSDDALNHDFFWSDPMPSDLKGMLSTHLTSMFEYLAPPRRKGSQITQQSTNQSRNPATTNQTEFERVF
Sequence of CDK9/T1 (O60563 whole entry partner): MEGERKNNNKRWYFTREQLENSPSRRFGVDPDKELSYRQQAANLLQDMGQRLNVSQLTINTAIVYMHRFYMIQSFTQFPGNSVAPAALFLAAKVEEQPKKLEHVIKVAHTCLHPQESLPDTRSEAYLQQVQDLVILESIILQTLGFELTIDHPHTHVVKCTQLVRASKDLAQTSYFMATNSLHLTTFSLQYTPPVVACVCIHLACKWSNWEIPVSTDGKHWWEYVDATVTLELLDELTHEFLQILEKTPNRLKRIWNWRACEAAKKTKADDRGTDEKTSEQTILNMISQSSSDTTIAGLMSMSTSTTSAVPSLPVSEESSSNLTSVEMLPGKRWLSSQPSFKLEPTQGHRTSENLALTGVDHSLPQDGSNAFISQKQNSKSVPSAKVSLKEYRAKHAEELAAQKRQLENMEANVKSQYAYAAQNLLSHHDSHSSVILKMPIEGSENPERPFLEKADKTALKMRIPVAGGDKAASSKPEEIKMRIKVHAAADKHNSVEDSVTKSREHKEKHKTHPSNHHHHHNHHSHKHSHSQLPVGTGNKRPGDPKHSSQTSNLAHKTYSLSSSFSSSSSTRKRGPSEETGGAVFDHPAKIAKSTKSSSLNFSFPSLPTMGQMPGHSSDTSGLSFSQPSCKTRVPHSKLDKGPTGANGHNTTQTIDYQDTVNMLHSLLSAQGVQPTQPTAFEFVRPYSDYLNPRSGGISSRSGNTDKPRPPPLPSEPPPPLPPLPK
Sequence of CDK6/D3 (Q00534 whole entry): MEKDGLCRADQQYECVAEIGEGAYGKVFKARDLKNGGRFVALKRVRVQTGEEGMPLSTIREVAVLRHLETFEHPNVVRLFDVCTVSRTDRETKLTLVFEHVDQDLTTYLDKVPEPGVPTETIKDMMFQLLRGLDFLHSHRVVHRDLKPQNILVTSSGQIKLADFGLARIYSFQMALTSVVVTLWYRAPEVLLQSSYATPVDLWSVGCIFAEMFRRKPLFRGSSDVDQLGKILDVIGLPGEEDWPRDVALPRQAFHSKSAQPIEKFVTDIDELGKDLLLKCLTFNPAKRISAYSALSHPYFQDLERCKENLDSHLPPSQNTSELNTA
Sequence of CDK6/D3 (P30281 whole entry partner): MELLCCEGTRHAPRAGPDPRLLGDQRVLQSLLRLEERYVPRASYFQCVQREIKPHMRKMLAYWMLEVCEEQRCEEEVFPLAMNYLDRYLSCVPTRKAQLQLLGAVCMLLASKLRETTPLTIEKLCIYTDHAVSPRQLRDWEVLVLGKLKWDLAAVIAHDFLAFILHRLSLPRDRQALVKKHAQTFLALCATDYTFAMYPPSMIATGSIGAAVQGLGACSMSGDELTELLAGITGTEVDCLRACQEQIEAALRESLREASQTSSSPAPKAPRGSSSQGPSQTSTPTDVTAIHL
Sequence of CDK4/D1 (P11802 whole entry): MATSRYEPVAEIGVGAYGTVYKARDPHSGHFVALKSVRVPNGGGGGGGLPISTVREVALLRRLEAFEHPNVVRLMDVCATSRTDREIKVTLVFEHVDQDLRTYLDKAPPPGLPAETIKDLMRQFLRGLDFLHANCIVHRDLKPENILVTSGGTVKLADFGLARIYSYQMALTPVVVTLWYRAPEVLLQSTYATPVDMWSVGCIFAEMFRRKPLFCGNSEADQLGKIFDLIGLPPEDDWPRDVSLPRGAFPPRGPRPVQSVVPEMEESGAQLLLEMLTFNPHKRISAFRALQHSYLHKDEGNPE
Sequence of CDK4/D1 (P24385 whole entry partner): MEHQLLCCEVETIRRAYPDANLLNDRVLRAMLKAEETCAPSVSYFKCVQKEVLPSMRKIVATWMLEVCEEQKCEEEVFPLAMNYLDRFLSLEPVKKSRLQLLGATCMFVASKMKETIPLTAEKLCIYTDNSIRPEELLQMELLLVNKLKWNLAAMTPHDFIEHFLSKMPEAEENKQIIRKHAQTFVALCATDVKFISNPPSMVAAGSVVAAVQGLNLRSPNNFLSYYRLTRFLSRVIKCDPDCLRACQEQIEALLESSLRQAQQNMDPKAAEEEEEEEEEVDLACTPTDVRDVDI

SMILES	Ki (CDK9/T1) [µM]	remaining activity at 10 µM (CDK4/D1) [%]	remaining activity at 10 µM (CDK6/D3) [%]	Ki (CDKs and other kinases [1]) [µM]	Ki (CDKs and other kinases [2]) [µM]	Ki (CDKs and other kinases [3]) [µM]	GI50 (leukemia cell lines) [µM]	remaining activity at 10 µM (CDKs and other kinases [1]) [%]	remaining activity at 10 µM (CDKs and other kinases [2]) [%]	remaining activity at 10 µM (CDKs and other kinases [3]) [%]	Ki (CDK4/D1; read-out: CDK inhibition, Ki (μM) CDK4D1) [µM]	Ki (CDK6/D3; read-out: CDK inhibition, Ki (μM) CDK6D3) [µM]
Cc1noc(C)c1-c1ccc2ncc(-c3nc(N[C@H]4CC[C@H](N)CC4)ncc3Cl)n2c1 [Compound 83, (1r,4r)-N^1-(5-Chloro-4-(6-(3,5-dimethylisoxazol-4-yl)imidazo[1,2-a]pyridin-3-yl)pyrimidin-2-yl)cyclohexane-1,4-diamine]	0.065	27	80	0.91	0.58	2.56	0.052 ± 0.011					
N[C@H]1CC[C@H](Nc2ncc(F)c(-c3cnc4cc(Nc5cccnc5)ccn34)n2)CC1 [Compound 46, (1r,4r)-N^1-(5-Fluoro-4-(7-(pyridin-3-ylamino)imidazo [1,2-a]pyridin-3-yl)pyrimidin-2-yl)cyclohexane-1,4-diamine]	0.004	0	1				< 0.001	0	3	0		
Cc1cnc(NC2CCC(N(C)C)CC2)nc1-c1cnc2ccc(Nc3cncnc3)cn12 (centres unmarked) [Compound 99, N^1,N^1-dimethyl-N^4-(5-Methyl-4-(6-(pyrimidin-5-ylamino)imidazo[1,2-a]pyridin-3-yl)pyrimidin-2-yl)cyclohexane-1,4-diamine]	0.006			0.48	3.1	1.66	0.265 ± 0.034				1.16	0.51
Cc1cnc(N[C@H]2CC[C@H](N)CC2)nc1-c1cnc2ccc(Oc3cccnc3)cn12 [Compound 74, (1r,4r)-N^1-(5-Methyl-4-(6-(pyridin-3-yloxy)imidazo[1,2-a]pyridin-3-yl)pyrimidin-2-yl)cyclohexane-1,4-diamine]	0.02	41	46				0.349 ± 0.086	11	50	39		
N[C@H]1CC[C@H](Nc2ncc(Cl)c(-c3cnc4ccccn34)n2)CC1 [Compound 42, (1r,4r)-N^1-(5-chloro-4-(imidazo[1,2-a]pyridin-3-yl)pyrimidin-2-yl)cyclohexane-1,4-diamine]	0.061	0	45	0.046	0.024	0.46	0.007 ± 0.001					

The remaining lines, values ahead:

Ki (CDK9/T1) [µM]	remaining activity at 10 µM (CDK4/D1) [%]	remaining activity at 10 µM (CDK6/D3) [%]	Ki (CDKs and other kinases [1]) [µM]	Ki (CDKs and other kinases [2]) [µM]	Ki (CDKs and other kinases [3]) [µM]	GI50 (leukemia cell lines) [µM]	remaining activity at 10 µM (CDKs and other kinases [1]) [%]	remaining activity at 10 µM (CDKs and other kinases [2]) [%]	remaining activity at 10 µM (CDKs and other kinases [3]) [%]	Ki (CDK4/D1; read-out: CDK inhibition, Ki (μM) CDK4D1) [µM]	Ki (CDK6/D3; read-out: CDK inhibition, Ki (μM) CDK6D3) [µM]	SMILES
0.291	40	27				0.009 ± 0.001	63	26	75			COc1cnc(N[C@H]2CC[C@H](N)CC2)nc1-c1cnc2ccccn12 [Compound 11, (1r,4r)-N^1-(4-(Imidazo[1,2-a]pyridin-3-yl)-5-methoxypyrimidin-2-yl)cyclohexane-1,4-diamine]
0.198	76	76				0.646 ± 0.129	28	33	59			Cc1cnc(NC2CCCC(N)C2)nc1-c1cnc2ccc(Nc3cccnc3)cn12 (centres unmarked) [Compound 95, N^1-(5-Methyl-4-(6-(pyridin-3-ylamino)imidazo[1,2-a]pyridin-3-yl)pyrimidin-2-yl)cyclohexane-1,3-diamine]
0.13	75	43	0.77	0.048	7.44	1.32 ± 0.549						N[C@H]1CC[C@H](Nc2ncc(Cl)c(-c3cnc4c(-c5ccccc5)cc(C(F)(F)F)cn34)n2)CC1 [Compound 85, (1r,4r)-N^1-(5-Chloro-4-(8-phenyl-6-(trifluoromethyl)imidazo[1,2-a]pyridin-3-yl)pyrimidin-2-yl)cyclohexane-1,4-diamine]
